# Test results as given in patent US20170150719A1, “FUNGICIDAL PYRAZOLES AND THEIR MIXTURES” (E I DU PONT DE NEMOURS AND COMPANY, priority 2010, published 2017).
# Marks after values point to notes of the source that are not given here.
# Key:
# [1] = test system: Botrytis cinerea; experiment: Test A: tomato Botrytis, preventive spray on tomato seedlings, visual disease rating; conditions: for Test A rating (disease control) / pest or weed control at 200 µg/mL: 0 = no disease control relative to the controls; for pest or weed control at 200 µg/mL: Botrytis cinerea, in Solanum lycopersicum, read-out: Test A rating (disease control), tomato Botrytis
# [2] = test system: Septoria tritici; experiment: Test F: wheat leaf blotch, preventive spray on wheat seedlings, visual disease rating; type: in vivo; design: Test F rating (disease control), value marked *: concentration or dose not given beside the values; conditions: for Test F rating (disease control) / pest or weed control at 200 µg/mL: 0 = no disease control relative to the controls; for pest or weed control at 200 µg/mL: Zymoseptoria tritici; for Test F rating (disease control), value marked *: rating marked with asterisk (*), other test condition, not explained in the text shown
# Excerpt: (§1) A hyphen (-) indicates no test results.
# [3] = test system: Blumeria graminis f. sp. tritici; experiment: Test I: wheat powdery mildew, preventive spray on wheat seedlings, visual disease rating; conditions: for Test I rating (disease control) / pest or weed control at 200 µg/mL: 0 = no disease control relative to the controls; for pest or weed control at 200 µg/mL: Blumeria graminis, in Triticum aestivum, read-out: Test I rating (disease control), wheat powdery mildew
# [4] = test system: Puccinia recondita f. sp. tritici; experiment: Test H: wheat leaf rust, preventive spray on wheat seedlings, visual disease rating; conditions: for Test H rating (disease control): sprayed the day before inoculation; for Test H rating (disease control) / pest or weed control at 200 µg/mL: 0 = no disease control; for pest or weed control at 200 µg/mL: read-out: Test H rating (disease control), wheat leaf rust, sprayed the day before inoculation
# [5] = test system: Septoria nodorum; experiment: Test E: Septoria glume blotch, preventive spray on wheat seedlings, visual disease rating; conditions: for Test E rating (disease control) / pest or weed control at 200 µg/mL: 0 = no disease control relative to the controls; for pest or weed control at 200 µg/mL: Parastagonospora nodorum, in Triticum aestivum, read-out: Test E rating (disease control), Septoria glume blotch
# [6] = test system: Alternaria solani; experiment: Test B: tomato early blight, preventive spray on tomato seedlings, visual disease rating; conditions: for Test B rating (disease control): 0 = no disease control relative to the controls; for pest or weed control at 200 µg/mL: Alternaria solani, in Solanum lycopersicum, read-out: Test B rating (disease control)
# Method: General protocol for preparing test suspensions for Tests A-I: the test compounds were first dissolved in acetone in an amount equal to 3% of the final volume and then suspended at the desired concentration (in ppm) in acetone and purified water (50/50 mix by volume) containing 250 ppm of the surfactant Trem® 014 (polyhydric alcohol esters). The resulting test suspensions were then used in Tests A-I. Each test was conducted in triplicate, and the results were averaged. Spraying a 200 ppm test suspension to the point of run-off on the test plants was the equivalent of a rate of about 800 g/ha. Unless otherwise indicated, the rating values indicate a 200 ppm test suspension was used. (An asterisk “*” next to the rating value indicates a 40 ppm test suspension was used.)
# The test suspension was sprayed to the point of run-off on tomato seedlings. The following day the seedlings were inoculated with a spore suspension of Alternaria solani (the causal agent of tomato early blight) and incubated in a saturated atmosphere at 27° C. for 48 h, and then moved to a growth chamber at 20° C. for 5 days, after which time visual disease ratings were made.
# [7] = test system: Puccinia recondita f. sp. tritici; experiment: Test G: wheat leaf rust, spray after inoculation (curative) on wheat seedlings, visual disease rating; type: in vivo; conditions: for Test G rating (disease control) / pest or weed control at 200 µg/mL: 0 = no disease control
# Excerpt: as §1
# [8] = tomato Botrytis, 100 = 100% disease control
# [9] = wheat powdery mildew, 100 = 100% disease control
# [10] = wheat leaf rust, 100 = 100% disease control
# [11] = Septoria glume blotch, 100 = 100% disease control
# [12] = tomato early blight, 100 = 100% disease control
# [13] = sprayed after inoculation, 100 = 100% disease control
Compound,"Test A rating (disease control) [1, 8] [%]",Test F rating (disease control) ([2]; 100 = 100% disease control) [%],"Test I rating (disease control) [3, 9] [%]","Test H rating (disease control) [4, 10] [%]","Test E rating (disease control) [5, 11] [%]","Test B rating (disease control) [6, 12] [%]","Test G rating (disease control) [7, 13] [%]",other results
Cc1nn(C)c(Oc2ccc(Cl)cc2Cl)c1-c1c(F)cc(F)cc1F [compound 9],99,97,99,99,0,9,0,–
Cc1nn(C)c(Nc2ccc(Cl)cc2F)c1-c1ccc(F)cc1F [compound 160],100,100,100,99,0,99,0,–
Cc1nn(C)c(Nc2ccc(Br)cc2Br)c1-c1ccc(F)cc1Cl [compound 183],–,–,–,–,–,–,–,"Test A rating (% disease control) ([1]; tomato Botrytis, preventive spray, 100 = 100% disease control, 0 = no control relative to controls, rating without asterisk): 100%; Test F rating (% disease control) ([2]; preventive spray, 100 = 100% disease control, rating without asterisk): 100%; Test I rating (% disease control) ([3]; wheat powdery mildew, preventive spray, 100 = 100% disease control, rating without asterisk): 98%; Test H rating (% disease control) ([4]; wheat leaf rust, preventive spray, 100 = 100% disease control, rating without asterisk): 96%; Test E rating (% disease control) ([5]; Septoria glume blotch on wheat, preventive spray, 100 = 100% disease control, rating without asterisk): 0%; Test B rating (% disease control) ([6]; tomato early blight, preventive spray, 100 = 100% disease control, rating without asterisk): 0%; Test G rating (% disease control) ([7]; spray after inoculation, 100 = 100% disease control, rating without asterisk): 54%"
"Cc1nn(C)c(Nc2ccc(F)cc2Cl)c1-c1c(F)cccc1Cl [Compound 58, N-(2-chloro-4-fluorophenyl)-4-(2-chloro-6-fluorophenyl)-1,3-dimethyl-1H-pyrazol-5-amine]",–,–,–,–,–,–,–,"pest or weed control at 200 µg/mL ([1]; 100 = 100% disease control): 99%; pest or weed control at 200 µg/mL ([2]; 100 = 100% disease control): 100%; pest or weed control at 200 µg/mL ([3]; 100 = 100% disease control): 100%; pest or weed control at 200 µg/mL ([4]; 100 = 100% disease control): 99%; pest or weed control at 200 µg/mL ([5]; 100 = 100% disease control): 0%; pest or weed control at 200 µg/mL [6]: 100%; pest or weed control at 200 µg/mL [7, 13]: 32%"
Cc1nn(C)c(Nc2ccc(F)cc2Cl)c1-c1ccc(Cl)cc1Cl [compound 125],99,100,100,98,0,0,82,–
COc1ccc(-c2c(C)nn(C)c2Nc2ccc(Cl)cc2Cl)c(Cl)c1 [compound 77],99,–,100,99,0,98,0,"Test F rating (disease control), value marked * [2]: 99* %"
"Cc1nn(C)c(Oc2ccc(C#N)cc2F)c1-c1ccc(F)cc1Cl [Compound 33, 4-[[4-(2-chloro-4-fluorophenyl)-1,3-dimethyl-1H-pyrazol-5-yl]oxy]-3-fluorobenzonitrile]",–,–,–,–,–,–,–,"pest or weed control at 200 µg/mL ([1]; 100 = 100% disease control): 100%; pest or weed control at 200 µg/mL ([2]; 100 = 100% disease control): 100%; pest or weed control at 200 µg/mL ([3]; 100 = 100% disease control): 99%; pest or weed control at 200 µg/mL ([4]; 100 = 100% disease control): 100%; pest or weed control at 200 µg/mL ([5]; 100 = 100% disease control): 98%; pest or weed control at 200 µg/mL [6]: 100%; pest or weed control at 200 µg/mL [7, 13]: 99%"
COc1ccc(-c2c(C)nn(C)c2Oc2ccc(C#N)cc2F)c(Br)c1 [compound 100],92,100,95,99,100,88,0,–
Cc1nn(C)c(Nc2ccc(F)cc2Cl)c1-c1c(F)cc(C#N)cc1F [compound 31],100,99,100,100,99,98,53,–
Cc1nn(C)c(Nc2c(F)cccc2F)c1-c1ccc(F)cc1F [compound 71],99,100,100,99,96,99,0,–
Cc1nn(C)c(Oc2ccc(C#N)cc2F)c1-c1ccc(F)cc1F [compound 159],–,–,–,–,–,–,–,"Test A rating (disease control), value marked * ([1]; tomato Botrytis, rating marked with asterisk (*), other test condition, not explained in the text shown): 100* %; Test F rating (disease control), value marked * [2]: 100* %; Test I rating (disease control), value marked * ([3]; wheat powdery mildew, rating marked with asterisk (*), not explained in the text shown): 96* %; Test H rating (disease control), value marked * ([4]; wheat leaf rust, preventive, rating marked with asterisk (*), not explained in the text shown): 98* %; Test E rating (disease control), value marked * ([5]; Septoria glume blotch, rating marked with asterisk (*), other test condition, not explained in the text shown): 86* %; Test B rating (disease control), value marked * ([6]; tomato early blight, rating marked with asterisk (*), other test condition, not explained in the text shown): 97* %; Test G rating (disease control), value marked * ([7]; sprayed after inoculation, rating marked with asterisk (*), not explained in the text shown): 0* %"
"Cc1nn(C)c(Nc2c(F)cc(Cl)cc2F)c1-c1ccc(F)cc1F [Compound 126, N-(4-chloro-2,6-difluorophenyl)-4-(2,4-difluorophenyl)-1,3-dimethyl-1H-pyrazol-5-amine]",–,–,–,–,–,–,–,"pest or weed control at 200 µg/mL ([1]; 100 = 100% disease control): 100%; pest or weed control at 200 µg/mL ([2]; 100 = 100% disease control): 100%; pest or weed control at 200 µg/mL ([3]; 100 = 100% disease control): 100%; pest or weed control at 200 µg/mL ([4]; 100 = 100% disease control): 99%; pest or weed control at 200 µg/mL ([5]; 100 = 100% disease control): 87%; pest or weed control at 200 µg/mL [6]: 86%; pest or weed control at 200 µg/mL [7, 13]: 0%"
COc1ccc(Nc2c(-c3ccc(F)cc3Br)c(C)nn2C)c(Cl)c1 [compound 103],99,100,99,99,0,83,63,–
Cc1nn(C)c(Nc2c(Cl)cc(Br)cc2Cl)c1-c1ccc(F)cc1Br [compound 168],0,100,48,91,0,0,97,–
Cc1nn(C)c(Oc2ccc(C#N)cc2Cl)c1-c1ccc(F)cc1Br [compound 80],98,–,99,99,60,0,9,"Test F rating (disease control), value marked * [2]: 100* %"
COc1cc(F)c(-c2c(C)nn(C)c2Oc2c(F)cccc2F)c(F)c1 [compound 22],100,100,99,100,78,100,98,–
COc1cc(F)c(-c2c(C)nn(C)c2Oc2c(F)cc(Cl)cc2F)c(F)c1 [Compound 15],98,98,100,100,89,100,82,–
COc1cc(F)c(-c2c(C)nn(C)c2Oc2ccc(Cl)cc2Cl)c(F)c1 [compound 10],99,94,99,99,0,0,92,–
Cc1nn(C)c(Nc2ccc(F)cc2F)c1-c1c(Cl)cccc1Cl [compound 113],100,100,100,98,0,0,0,–
"COc1cc(F)c(-c2c(C)nn(C)c2Nc2c(F)cc(F)cc2F)c(F)c1 [Compound 7, 4-(2,6-difluoro-4-methoxyphenyl)-1,3-dimethyl-N-(2,4,6-trifluorophenyl)-1H-pyrazol-5-amine]",–,–,–,–,–,–,–,"pest or weed control at 200 µg/mL ([1]; 100 = 100% disease control): 98%; pest or weed control at 200 µg/mL ([2]; 100 = 100% disease control): 94%; pest or weed control at 200 µg/mL ([3]; 100 = 100% disease control): 100%; pest or weed control at 200 µg/mL ([4]; 100 = 100% disease control): 97%; pest or weed control at 200 µg/mL ([5]; 100 = 100% disease control): 0%; pest or weed control at 200 µg/mL [6]: 100%; pest or weed control at 200 µg/mL [7, 13]: 9%"
